Legend:
Assay type in all cases: cell-based
[1] = target: T1, Human GPR120 short form (Homo sapiens, UniProt Q5NUL3); test: Human GPR120 calcium flux assay, Procedure Calcium B; conditions: HEK-293 cells expressing human GPR120 short form, 4200 cells/well, FLIPR
T1 construct: expressed in transfected cells
T1 sequence (Q5NUL3 1-361): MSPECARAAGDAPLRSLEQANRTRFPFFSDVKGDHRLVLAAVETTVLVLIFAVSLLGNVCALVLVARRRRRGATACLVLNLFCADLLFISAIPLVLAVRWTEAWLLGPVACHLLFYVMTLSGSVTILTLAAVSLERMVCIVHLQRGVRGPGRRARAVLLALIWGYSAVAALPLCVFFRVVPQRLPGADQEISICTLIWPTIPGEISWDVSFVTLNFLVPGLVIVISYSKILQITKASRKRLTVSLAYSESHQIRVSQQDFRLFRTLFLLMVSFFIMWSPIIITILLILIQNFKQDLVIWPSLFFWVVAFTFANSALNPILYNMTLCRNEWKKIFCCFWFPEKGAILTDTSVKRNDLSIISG

[2] = target: T2, short form of the GPR120 receptor (Homo sapiens, UniProt Q5NUL3); test: Human GPR120 DiscoveRx PathHunter β-Arrestin assay, Procedure β-arrestin B; conditions: PathHunter CHO-K1 GPR120S β-Arrestin cell line, 5000 cells/well
T2 construct: host or cells: PathHunter CHO-K1 GPR120S β-Arrestin Cell Line
T2 sequence (P32121 whole entry partner, one chain of several): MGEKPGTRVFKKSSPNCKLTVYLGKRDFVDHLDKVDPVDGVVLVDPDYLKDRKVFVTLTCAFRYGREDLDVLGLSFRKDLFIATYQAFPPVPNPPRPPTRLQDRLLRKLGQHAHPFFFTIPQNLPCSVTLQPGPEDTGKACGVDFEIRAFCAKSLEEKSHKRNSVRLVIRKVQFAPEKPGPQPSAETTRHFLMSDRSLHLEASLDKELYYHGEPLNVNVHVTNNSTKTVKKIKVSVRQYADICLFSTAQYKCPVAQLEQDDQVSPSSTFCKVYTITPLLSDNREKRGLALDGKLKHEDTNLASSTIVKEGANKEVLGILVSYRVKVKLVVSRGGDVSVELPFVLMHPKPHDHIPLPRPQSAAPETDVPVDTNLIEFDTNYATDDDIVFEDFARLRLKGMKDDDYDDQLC
From the text: (§1) The binding of an agonist (medium/long chain fatty acids or small molecule agonists) to the G-protein-coupled receptor GPR120 activates phospholipase C, leading to release of intracellular Ca^+2 through the generation of inositol 1,4,5-trisphosphate (InsP3 or IP3). GPR120 activation can also trigger intracellular signaling via recruitment of β-Arrestin. In the present method, agonist-induced activation of the human GPR120 receptor is monitored through the use of PathHunter CHO-K1 GPR120 β-Arrestin Cell Line engineered by DiscoveRx, as detailed below. The cell lines are designed to co-express both the ProLink/Enzyme Donor (PK)-tagged GPCR and the Enzyme […] (EA)-tagged Beta-Arrestin fusion proteins. Upon GPR120 receptor stimulation/activation, the EA-tagged β-Arrestin portion is translocated to the tagged receptor, where the two enzyme fragments are brought within close proximity. Under these conditions, these fragments can interact and form an active Beta-gal enzyme complex through Enzyme Fragment Complementation (EFC). This active Beta-gal complex can enzymatically hydrolyse the substrate to produce a detectable light signal; therefore, activation as a function of agonist concentration can be expressed as an EC50 value to determine relative compound activities. This in vitro assay therefore serves to assess compound agonist activity of the GPR120.
In Procedure β-arrestin B the cells used were PathHunter CHO-K1 GPR120S β-Arrestin Cell Line, expressing the short form of the GPR120 receptor (Accession #NM_181745), with 5000 cells/well.
(§2) The selected CHO-K1 GPR120 β-Arrestin cells were cultured in Ham's F12 media supplemented with 10% fetal bovine serum (FBS), 1% Glutamine, 1×p/s, 800 μg/ml G418 and 300 μg/ml Hygromycin B (for selection). Cell stocks were maintained and grown in a sub-confluent state using standard cell culture procedures. The day before the experiment, the cells were harvested with non-enzymatic cell dissociation buffer and re-suspended in complete growth media at the desired concentration. A Corning 384-plate was then seeded with the proper number of cells in a volume of 25 μL, per well. The seeded plates were incubated overnight at 37° C.
(§3) On the day of the experiment, the Assay Buffer containing (a) HBSS with Ca^++ and Mg^++, (b) 20 mM HEPES, and (c) 0.1% BSA stabilizer (pH 7.4) was prepared. The growth medium was gently removed from the cell plates and 20 μL of Assay Buffer added to each well. The plate was then incubated at 37° C. for 60 mins. Test compounds were serially diluted in Assay Buffer to desired concentrations (more particularly, to one or more of the following μM concentrations: 25 μM, 12.5 μM, 6.25 μM, 3.125 μM, 1.562 μM, 0.781 μM, 0.391 μM, 0.195 μM, 0.098 μM, 0.049 μM, 0.024 μM, 0.012 μM). Five μl of compound dilution was then added to each well and the plate incubated at 37° C. for 90 mins. The detection reagents were prepared according to the manufacture's instruction. Twelve μL of the detection reagents were added to each well and the plate incubated at room temperature for 60 mins.
(§4) The plates were read on an EnVision instrument, using Protocol name: Luminescence, Plate type: 384 Costar, Measurement height: 3 mm, Measurement time: 1 s, Aperture: 384 Plate aperture. The % activity relative to the positive control was calculated using the following equation:
(§5) The % Activity values were plotted versus the concentration of test compound and fitted to a sigmoidal dose-response curve with a Hill slope=1 (fixed value) using nonlinear regression with GraphPad Prism 5.0 to calculate the EC50 values. The Fitting Equation was: Y=Bottom+(Top−Bottom)/(1+10^((LogEC50−X)*HillSlope)), where X is the log of the concentration and Y is the response.

[3] = target: T3, long form of human GPR120 (Homo sapiens, UniProt Q5NUL3); test: Human GPR120 DiscoveRx PathHunter β-Arrestin assay, Procedure β-arrestin A; conditions: PathHunter CHO-K1 GPR120 β-Arrestin cell line, 3000 cells per well
T3 construct: host or cells: PathHunter CHO-K1 GPR120 β-Arrestin Cell Line
T3 sequence (Q5NUL3 1-377 isoform Q5NUL3-1): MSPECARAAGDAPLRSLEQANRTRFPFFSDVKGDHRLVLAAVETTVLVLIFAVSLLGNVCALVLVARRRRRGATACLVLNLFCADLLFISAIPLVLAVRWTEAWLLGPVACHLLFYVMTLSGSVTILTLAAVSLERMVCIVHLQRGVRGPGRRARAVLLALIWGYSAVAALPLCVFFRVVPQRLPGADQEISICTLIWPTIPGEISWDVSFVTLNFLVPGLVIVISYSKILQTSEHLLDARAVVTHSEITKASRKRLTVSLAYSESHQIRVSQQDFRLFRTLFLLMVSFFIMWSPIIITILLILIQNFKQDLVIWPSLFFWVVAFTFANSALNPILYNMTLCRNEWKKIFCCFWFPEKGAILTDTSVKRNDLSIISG
T3 sequence (P32121 whole entry partner): as the sequence (P32121 whole entry partner, one chain of several) above
From the text: as §1
In Procedure β-arrestin A, the cell used were PathHunter CHO-K1 GPR120 β-Arrestin Cell Line, expressing the long form of human GPR120 (Genbank accession number NM_181745), with 3000 cells per well.
as §2, §3, §4, §5

[4] = target: T1, Human GPR120 short form; test: Human GPR120 calcium flux assay, Procedure Calcium A; conditions: HEK-293 cells expressing human GPR120 short form, 2500 cells/well, FLIPR
Method in brief: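 HEK293 cells stably expressing the human GPR120 short splice variant (NM_001195755.1) were seeded at 2500 cells/well, serum-starved 1 h and loaded with Fluo-4 NW plus probenecid. Compounds (100–0.012 μM solutions, 0.2% final DMSO) were added, and FLIPR calcium flux was read for 300 s. EC50 came from a variable-slope fit (Hill <2) of Fmax−Fmin.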

| EC50 [1] [nM] | EC50 [2] [nM] | EC50 [3] [nM] | EC50 [4] [nM] | Compound |
| --- | --- | --- | --- | --- |
| 262 | 96 |  |  | Cc1ccc(-n2ccc(C(F)(F)F)c2COc2c(F)cc(CCC(=O)O)cc2F)cc1F [Compound 62, 3-(3,5-difluoro-4-[[1-(3-fluoro-4-methylphenyl)-3-(trifluoromethyl)-1H-pyrrol-2-yl]methoxy]phenyl)propanoic acid] |
| 167 | 797 |  |  | Cc1c(CCC(=O)O)ccc(OCc2c(C(F)(F)F)ccn2-c2ccc(Cl)cc2F)c1C [Compound 74, 3-(4-{[1-(4-Chloro-2-fluorophenyl)-3-(trifluoromethyl)-1H-pyrrol-2-yl]methoxy}-2,3-dimethylphenyl)propanoic acid] |
| 266 | 1060 |  |  | Cc1c(CCC(=O)O)ccc(OCc2c(C(F)(F)F)ccn2-c2ccc(F)cc2F)c1C [Compound 77, 3-(4-{[1-(2,4-Difluorophenyl)-3-(trifluoromethyl)-1H-pyrrol-2-yl]methoxy}-2,3-dimethylphenyl)propanoic acid] |
| 305 | 1420 |  |  | Cc1c(CCC(=O)O)ccc(OCc2c(C(F)(F)F)ccn2-c2ccc(F)c(F)c2)c1C [Compound 78, 3-(4-{[1-(3,4-Difluorophenyl)-3-(trifluoromethyl)-1H-pyrrol-2-yl]methoxy}-2,3-dimethylphenyl)propanoic acid] |
| 80 | 69 |  |  | O=C(O)CCc1cc(F)c(OCc2c(C(F)(F)F)ccn2-c2ccc(Cl)cc2)c(F)c1 [Compound 70, 3-(4-((1-(4-chlorophenyl)-3-(trifluoromethyl)-1H-pyrrol-2-yl)methoxy)-3,5-difluorophenyl)propanoic acid] |
| 179 | 624 |  |  | O=C(O)CCc1cc(F)c(OCc2c(C(F)(F)F)ccn2-c2ccc(Cl)cc2F)c(F)c1 [Compound 71, 3-(4-{[1-(4-Chloro-2-fluorophenyl)-3-(trifluoromethyl)-1H-pyrrol-2-yl]methoxy}-3,5-difluorophenyl)propanoic acid] |
| 547 | 809 |  |  | CC(Cc1cc(F)c(OCc2c(C(F)(F)F)ccn2-c2ccc(F)cc2)c(F)c1)C(=O)O (stereo not drawn) [Compound 65, 3-(3,5-difluoro-4-[[1-(4-fluorophenyl)-3-(trifluoromethyl)-1H-pyrrol-2-yl]methoxy]phenyl)-2-methylpropanoic acid] |
| 357 | 311 |  |  | Cc1c(CCC(=O)O)ccc(OCc2c(C(F)(F)F)ccn2-c2ccc(Cl)c(F)c2)c1C [Compound 68, 3-(4-{[1-(4-Chloro-3-fluorophenyl)-3-(trifluoromethyl)-1H-pyrrol-2-yl]methoxy}-2,3-dimethylphenyl)propanoic acid] |
| 290 | 417 |  |  | CC(Cc1cc(F)c(OCc2c(C(F)(F)F)ccn2-c2ccc(Cl)cc2)c(F)c1)C(=O)O (stereo not drawn) [Compound 59, 3-(4-[[1-(4-chlorophenyl)-3-(trifluoromethyl)-1H-pyrrol-2-yl]methoxy]-3,5-difluorophenyl)-2-methylpropanoic acid] |
| 368 | 206 |  |  | O=C(O)CCc1cc(F)c(OCc2c(C(F)(F)F)ccn2-c2ccc(Cl)c(F)c2)c(F)c1 [Compound 67, 3-(4-[[1-(4-chloro-3-fluorophenyl)-3-(trifluoromethyl)-1H-pyrrol-2-yl]methoxy]-3,5-difluorophenyl)propanoic acid] |
| 236 | 639 |  |  | CCc1ccc(-n2ccc(C(F)(F)F)c2COc2c(F)cc(CC(C)C(=O)O)cc2F)cc1 (stereo not drawn) [Compound 61, 3-(4-[[1-(4-ethylphenyl)-3-(trifluoromethyl)-1H-pyrrol-2-yl]methoxy]-3,5-difluorophenyl)-2-methylpropanoic acid] |
| 488 | 630 |  |  | CC(Cc1cc(F)c(OCc2c(C(F)(F)F)ccn2-c2ccc(Cl)c(F)c2)c(F)c1)C(=O)O (stereo not drawn) [Compound 69, 3-(4-[[1-(4-chloro-3-fluorophenyl)-3-(trifluoromethyl)-1H-pyrrol-2-yl]methoxy]-3,5-difluorophenyl)-2-methylpropanoic acid] |
| 91 |  | 639 | 836 | O=C(O)CCc1ccc(OCc2c(C(F)(F)F)ccn2-c2ccc(Cl)cc2)c(F)c1F [Compound 16, 3-(4-{[1-(4-Chlorophenyl)-3-(trifluoromethyl)-1H-pyrrol-2-yl]methoxy}-2,3-difluorophenyl)propanoic acid] |
| 533 |  | 238 | 1090 | Cc1c(CCCO)ccc(OCc2c(C(F)(F)F)ccn2-c2ccc(Cl)cc2)c1C [Compound 17, 3-(4-{[1-(4-Chlorophenyl)-3-(trifluoromethyl)-1H-pyrrol-2-yl]methoxy}-2,3-dimethylphenyl)propan-1-ol] |
| 368 |  | 130 | 435 | OCCCc1ccc(OCc2c(Br)ccn2-c2ccc(Cl)cc2)c(F)c1F [Compound 5, 3-(4-{[3-Bromo-1-(4-chlorophenyl)-1H-pyrrol-2-yl]methoxy}-2,3-difluorophenyl)propan-1-ol] |
| 246 |  | 25 | 427 | OCCCc1cc(F)c(OCc2c(C(F)(F)F)ccn2-c2ccc(Br)cc2)c(F)c1 [Compound 30, 3-(4-[[1-(4-bromophenyl)-3-(trifluoromethyl)-1H-pyrrol-2-yl]methoxy]-3,5-difluorophenyl)propan-1-ol] |
| 289 |  | 1240 | 870 | Cc1ccc(-n2ccc(C(F)(F)F)c2COc2c(F)cc(CCC(=O)O)cc2F)cn1 [Compound 49, 3-(3,5-Difluoro-4-{[1-(6-methylpyridin-3-yl)-3-(trifluoromethyl)-1H-pyrrol-2-yl]methoxy}phenyl)propanoic acid] |
| 63 |  | 201 | 507 | OCCCc1cc(F)c(OCc2c(C(F)(F)F)ccn2-c2ccccc2)c(F)c1 [Compound 35, 3-(3,5-difluoro-4-[[1-phenyl-3-(trifluoromethyl)-1H-pyrrol-2-yl]methoxy]phenyl)propan-1-ol] |
| 63 |  | 359 | 558 | Cc1ccc(-n2ccc(C(F)(F)F)c2COc2ccc(CCC(=O)O)c(C)c2C)cc1 [Compound 43, 3-(2,3-dimethyl-4-[[1-(4-methylphenyl)-3-(trifluoromethyl)-1H-pyrrol-2-yl]methoxy]phenyl)propanoic acid] |

From patent US8912227B1, “Bicyclic pyrrole derivatives useful as agonists of GPR120” (Janssen Pharmaceutica NV, priority 2014, dated 2014)
